Assay results as given in patent US20210116454A1, “METHODS FOR TREATING A HEMATOLOGICAL CANCER AND THE USE OF COMPANION BIOMARKERS FOR 2-(2,6-DIOXOPIPERIDIN-3-YL)-4-((2-FLUORO-4-((3-MORPHOLINOAZETIDIN-1-YL)METHYL)BENZYL)AMINO)ISOINDOLINE-1,3-DIONE” (CELGENE CORPORATION, priority 2019, published 2021).
Read-outs that look alike come from different tables or passages of the source.

Columns and labels:
Format in all cases: cell-based
SU-DHL-4 M-Parental = experiment: Viable cells/apoptosis in doxorubicin-resistant and matching parental lines
Protocol: (§1) The activity of Compound 1 was also evaluated in cell lines with acquired resistance to doxorubicin (Table 4). Doxorubicin-resistant cell lines (DoxoR) were generated by culturing the parental cell lines in vitro with increasing concentrations of doxorubicin for a long period of time (˜9 to 18 months) until they were able to grow in the presence of a relatively high concentration of doxorubicin (1 μM). Matching parental (M-Parent) cells were generated by maintaining the parental cells in culture without treatment for the same amount of time (˜9 to 18 months). The growth-inhibitory effect of doxorubicin on parental cells and the corresponding resistant cells was evaluated by measuring the number of viable cells and extent of apoptosis by 7-AAD exclusion and Annexin V staining using flow cytometry.
(§2) The effects of Compound 1 on the viability of doxorubicin-resistant versus parental cell lines was determined (FIG. 2; Table 5).

U2932 DoxoR = experiment: as above
Protocol: as §1, §2

SU-DHL-4 DoxoR = experiment: as above
Protocol: as §1, §2

Oci-Ly10 DoxoR = experiment: as above
Protocol: as §1, §2

WSU-DLCL2 DoxoR = experiment: as above
Protocol: as §1, §2

U2932 M-Parental = experiment: as above
Protocol: as §1, §2

Oci-Ly10 M-Parental = experiment: as above; settings: Oci-Ly 10 M-Parental
Protocol: as §1, §2

WSU-DLCL2 M-Parental = experiment: as above
Protocol: as §1, §2

OCI-LY-7 = experiment: 5-day viable cell number and apoptosis (7-AAD exclusion/Annexin V flow cytometry)
Text: (§3) The DLBCL panel includes seven cell lines classified as activated B-cell (ABC) subtype, thirteen cell lines classified as the germinal center B-cell (GCB) subtype, and three cell lines classified as primary mediastinal B-cell lymphoma (PMBL). […] The translocation of MYC, BCL6, or BCL2 to an IG locus usually leads to high levels of mRNA and protein due to the active transcription driven by a constitutively active IG promoter. […] Expressions of CRBN protein and known substrates, Ikaros, Aiolos, and ZFP91 were also evaluated (FIG. 1, panels B and C).
(§4) The panel of cell lines were treated with increasing doses of compounds for five days, at which time the number of viable cells was measured and the amount of apoptosis was determined by 7-AAD exclusion and Annexin V staining using flow cytometry.

OCI-LY-19 = experiment: as above; settings: OCI-LY-19 cells, 5 days
Text: as §3, §4

OCI-LY-3 = experiment: as above; settings: OCI-LY-3 cells, 5 days
Text: as §3, §4

TMD8 = experiment: as above; settings: TMD8 cells, 5 days
Text: as §3, §4

KARPAS-422 = experiment: as above
Text: as §3, §4

RC-K8 = experiment: as above
Text: as §3, §4

SU-DHL-2 = experiment: as above
Text: as §3, §4

SU-DHL-4 = experiment: as above
Text: as §3, §4

U2932 = experiment: as above
Text: as §3, §4

Toledo = experiment: as above; settings: Toledo cells, 5 days
Text: as §3, §4

RIVA = experiment: as above
Text: as §3, §4

[1] = Homo sapiens, 120 h, 5 days, read-out: IC50
[2] = Homo sapiens, WSUDLCL2, 120 h, 5 days, read-out: IC50
[3] = Homo sapiens, OCI-Ly7, 120 h, OCI-LY-7 cells, 5 days
[4] = Homo sapiens, 120 h, read-out: % Viable Cells IC50
[5] = Homo sapiens, 120 h, KARPAS-422 cells, 5 days
[6] = Homo sapiens, RCK8, 120 h, RC-K8 cells, 5 days
[7] = Homo sapiens, 120 h, SU-DHL-2 cells, 5 days
[8] = Homo sapiens, 120 h, SU-DHL-4 cells, 5 days
[9] = Homo sapiens, 120 h, U2932 cells, 5 days

O=C1CC[C@H](N2C(=O)c3cccc(NCc4ccc(CN5CC(N6CCOCC6)C5)cc4F)c3C2=O)C(=O)N1 [Compound 1, (S)-2-(2,6-dioxopiperidin-3-yl)-4-((2-fluoro-4-((3-morpholinoazetidin-1-yl)methyl)benzyl)amino)isoindoline-1,3-dione]
IC50 (SU-DHL-4 M-Parental; [1]): > 10000 nM
Emax (% viable cells remaining) (SU-DHL-4 M-Parental; relative to DMSO): 74%
IC50 (U2932 DoxoR; Homo sapiens, 120 h, U2932 DoxoR, 5 days, read-out: IC50): 1500 nM
Emax (% viable cells remaining) (U2932 DoxoR; U2932 DoxoR, relative to DMSO): 31%
lower sensitivity in doxorubicin-resistant cells (U2932 DoxoR; U2932 doxorubicin-resistant vs M-parental): 20 fold
IC50 (SU-DHL-4 DoxoR; Homo sapiens, 120 h, SU-DHL-4 DoxoR, 5 days, read-out: IC50): 100 nM
Emax (% viable cells remaining) (SU-DHL-4 DoxoR; SU-DHL-4 DoxoR, relative to DMSO): 8%
greater sensitivity in the doxorubicin-resistant cell line (SU-DHL-4 DoxoR; SU-DHL-4 doxorubicin-resistant vs parental): > 100 fold
IC50 (Oci-Ly10 DoxoR; Homo sapiens, OCI-Ly10, 120 h, Oci-Ly 10 DoxoR, 5 days, read-out: IC50): 300 nM
greater sensitivity of resistant cells compared to parental cells (Oci-Ly10 DoxoR; OCI-Ly10 doxorubicin-resistant vs parental): approximately 20 fold
Emax (% viable cells remaining) (Oci-Ly10 DoxoR; Oci-Ly 10 DoxoR, relative to DMSO): 22%
IC50 (WSU-DLCL2 DoxoR; [2]): 100 nM
Emax (% viable cells remaining) (WSU-DLCL2 DoxoR; relative to DMSO): 9%
IC50 (U2932 M-Parental; [1]): 60 nM
Emax (% viable cells remaining) (U2932 M-Parental; relative to DMSO): 19%
IC50 (Oci-Ly10 M-Parental; Homo sapiens, OCI-Ly10, 120 h, 5 days, read-out: IC50): 6000 nM
Emax (% viable cells remaining) (Oci-Ly10 M-Parental; relative to DMSO): 47%
IC50 (WSU-DLCL2 M-Parental; [2]): 10 nM
Emax (% viable cells remaining) (WSU-DLCL2 M-Parental; relative to DMSO): 23%
EC50 (OCI-LY-7; [3]): 12.8 nM
Emax (OCI-LY-7; [3]): 68.8%
IC50 (OCI-LY-7; Homo sapiens, OCI-Ly7, 120 h, OCI-LY-7 cells, 5 days, read-out: % Viable Cells IC50): 3.6 nM
IC50 (OCI-LY-7; Homo sapiens, OCI-Ly7, OCI-LY-7 cells (Table 3), read-out: IC50): 62000 nM
% Viable Cells AUC (OCI-LY-7; OCI-LY-7 cells, 5 days): 61.98
% Viable Cells Emax (OCI-LY-7; OCI-LY-7 cells, 5 days): 1.657%
% Viable Cells Sensitivity (OCI-LY-7; OCI-LY-7 cells, 5 days): High (highly sensitive to Compound 1 with less than 6% viable cells remaining (Emax) after treatment)
Apoptosis AUC (OCI-LY-7; OCI-LY-7 cells, 5 days): 673.2
Apoptosis Sensitivity (OCI-LY-7; OCI-LY-7 cells, 5 days): High
EC50 (OCI-LY-19; Homo sapiens, OCI-LY19, 120 h): 80.9 nM
Emax (OCI-LY-19; Homo sapiens, OCI-LY19, 120 h): 30.6%
IC50 (OCI-LY-19; Homo sapiens, OCI-LY19, 120 h, read-out: % Viable Cells IC50): 30 nM
% Viable Cells AUC (OCI-LY-19): 283.3
% Viable Cells Emax (OCI-LY-19): 28.11%
% Viable Cells Sensitivity (OCI-LY-19): Intermediate (intermediate sensitivity with 15% to 55% cell viability)
Apoptosis AUC (OCI-LY-19): 293.5
Apoptosis Sensitivity (OCI-LY-19): Intermediate
EC50 (OCI-LY-3; Homo sapiens, OCI-Ly3, 120 h): 0.46 nM
Emax (OCI-LY-3; Homo sapiens, OCI-Ly3, 120 h): 0.753%
% Viable Cells AUC (OCI-LY-3): 986.1
% Viable Cells Emax (OCI-LY-3): 84.33%
% Viable Cells Sensitivity (OCI-LY-3): Limited
Apoptosis AUC (OCI-LY-3): 7.009
Apoptosis Sensitivity (OCI-LY-3): Limited
EC50 (TMD8; Homo sapiens, 120 h): 4.44 nM
Emax (TMD8; Homo sapiens, 120 h): 83.2%
IC50 (TMD8; [4]): 3 nM
% Viable Cells AUC (TMD8): 3.911
% Viable Cells Emax (TMD8): 1.365%
% Viable Cells Sensitivity (TMD8): High (highly sensitive to Compound 1 with less than 6% viable cells remaining (Emax) after treatment)
Apoptosis AUC (TMD8): 826.8
Apoptosis Sensitivity (TMD8): High
EC50 (KARPAS-422; [5]): 32.5 nM
Emax (KARPAS-422; [5]): 70.5%
IC50 (KARPAS-422; Homo sapiens, 120 h, KARPAS-422 cells, 5 days, read-out: % Viable Cells IC50): 5.4 nM
IC50 (KARPAS-422; Homo sapiens, KARPAS-422 cells (Table 3), read-out: IC50): 45000 nM
% Viable Cells AUC (KARPAS-422; KARPAS-422 cells, 5 days): 45.21
% Viable Cells Emax (KARPAS-422; KARPAS-422 cells, 5 days): 1.584%
% Viable Cells Sensitivity (KARPAS-422; KARPAS-422 cells, 5 days): High (highly sensitive to Compound 1 with less than 6% viable cells remaining (Emax) after treatment)
Apoptosis AUC (KARPAS-422; KARPAS-422 cells, 5 days): 682.2
Apoptosis Sensitivity (KARPAS-422; KARPAS-422 cells, 5 days): High
EC50 (RC-K8; [6]): 230 nM
Emax (RC-K8; [6]): 9.53%
IC50 (RC-K8; Homo sapiens, RCK8, 120 h, RC-K8 cells, 5 days, read-out: % Viable Cells IC50): 100 nM
IC50 (RC-K8; Homo sapiens, RCK8, RC-K8 cells (Table 3), read-out: IC50): 409000 nM
% Viable Cells AUC (RC-K8; RC-K8 cells, 5 days): 409.1
% Viable Cells Emax (RC-K8; RC-K8 cells, 5 days): 34.92%
% Viable Cells Sensitivity (RC-K8; RC-K8 cells, 5 days): Intermediate (intermediate sensitivity with 15% to 55% cell viability)
Apoptosis AUC (RC-K8; RC-K8 cells, 5 days): 81.59
Apoptosis Sensitivity (RC-K8; RC-K8 cells, 5 days): Intermediate
EC50 (SU-DHL-2; [7]): 7.78 nM
Emax (SU-DHL-2; [7]): 75.2%
IC50 (SU-DHL-2; Homo sapiens, 120 h, SU-DHL-2 cells, 5 days, read-out: % Viable Cells IC50): 1.3 nM
IC50 (SU-DHL-2; Homo sapiens, SU-DHL-2 cells (Table 3), read-out: IC50): 7000 nM
% Viable Cells AUC (SU-DHL-2; SU-DHL-2 cells, 5 days): 6.871
% Viable Cells Emax (SU-DHL-2; SU-DHL-2 cells, 5 days): 1.264%
% Viable Cells Sensitivity (SU-DHL-2; SU-DHL-2 cells, 5 days): High (highly sensitive to Compound 1 with less than 6% viable cells remaining (Emax) after treatment)
Apoptosis AUC (SU-DHL-2; SU-DHL-2 cells, 5 days): 745
Apoptosis Sensitivity (SU-DHL-2; SU-DHL-2 cells, 5 days): High
EC50 (SU-DHL-4; [8]): 452 nM
Emax (SU-DHL-4; [8]): 18.9%
IC50 (SU-DHL-4; Homo sapiens, 120 h, SU-DHL-4 cells, 5 days, read-out: % Viable Cells IC50): 500 nM
IC50 (SU-DHL-4; Homo sapiens, SU-DHL-4 cells (Table 3), read-out: IC50): 457000 nM
% Viable Cells AUC (SU-DHL-4; SU-DHL-4 cells, 5 days): 457.4
% Viable Cells Emax (SU-DHL-4; SU-DHL-4 cells, 5 days): 41.79%
% Viable Cells Sensitivity (SU-DHL-4; SU-DHL-4 cells, 5 days): Intermediate (intermediate sensitivity with 15% to 55% cell viability)
Apoptosis AUC (SU-DHL-4; SU-DHL-4 cells, 5 days): 155.2
Apoptosis Sensitivity (SU-DHL-4; SU-DHL-4 cells, 5 days): Intermediate
EC50 (U2932; [9]): 11900 nM
Emax (U2932; [9]): 69.9%
IC50 (U2932; Homo sapiens, 120 h, U2932 cells, 5 days, read-out: % Viable Cells IC50): 100 nM
IC50 (U2932; Homo sapiens, U2932 cells (Table 3), read-out: IC50): 327000 nM
% Viable Cells AUC (U2932; U2932 cells, 5 days): 327.1
% Viable Cells Emax (U2932; U2932 cells, 5 days): 24.81%
% Viable Cells Sensitivity (U2932; U2932 cells, 5 days): Intermediate (intermediate sensitivity with 15% to 55% cell viability)
Apoptosis AUC (U2932; U2932 cells, 5 days): 280.5
Apoptosis Sensitivity (U2932; U2932 cells, 5 days): Intermediate
EC50 (Toledo; Homo sapiens, 120 h): 500 nM
Emax (Toledo; Homo sapiens, 120 h): 14%
IC50 (Toledo; [4]): 500 nM
% Viable Cells AUC (Toledo): 507
% Viable Cells Emax (Toledo): 52.68%
% Viable Cells Sensitivity (Toledo): Intermediate (intermediate sensitivity with 15% to 55% cell viability)
Apoptosis AUC (Toledo): 114.8
Apoptosis Sensitivity (Toledo): Intermediate
EC50 (RIVA; 120 h, RIVA cells, 5 days): 19 nM
Emax (RIVA; 120 h, RIVA cells, 5 days): 22.7%
IC50 (RIVA; 120 h, RIVA cells, 5 days, read-out: % Viable Cells IC50): 50 nM
IC50 (RIVA; RIVA cells (Table 3), read-out: IC50): 396000 nM
% Viable Cells AUC (RIVA; RIVA cells, 5 days): 395.8
% Viable Cells Emax (RIVA; RIVA cells, 5 days): 36.99%
% Viable Cells Sensitivity (RIVA; RIVA cells, 5 days): Intermediate (intermediate sensitivity with 15% to 55% cell viability)
Apoptosis AUC (RIVA; RIVA cells, 5 days): 216.6
Apoptosis Sensitivity (RIVA; RIVA cells, 5 days): Intermediate
